The values that follow come from ChEMBL document CHEMBL5303573, “Mapping human microbiome drug metabolism by gut bacteria and their genes” (Nature, 2019).

The structures appear in SMILES notation.

Data set [1] can be described thus: The drug is tested on Bacteroides cellulosilyticus strain: DSM14838 for biotransformation. The drug concentrations were measured before and after a 12-h incubation by liquid-chromatography-coupled mass spectrometry (LC–MS). To be noted: 2 µM.
Data set [2] is described as follows: The drug is tested on Bacteroides fragilis strain: ATCC43859 for biotransformation. The drug concentrations were measured before and after a 12-h incubation by liquid-chromatography-coupled mass spectrometry (LC–MS). To be noted: 2 µM.
A short description of data set [3]: The drug is tested on Eubacterium hallii strain: DSM3353 for biotransformation. The drug concentrations were measured before and after a 12-h incubation by liquid-chromatography-coupled mass spectrometry (LC–MS). Particulars: anaerobutyricum hallii, 2 µM.
A short description of data set [4]: The drug is tested on Bacteroides coprophilus strain: DSM18228 for biotransformation. The drug concentrations were measured before and after a 12-h incubation by liquid-chromatography-coupled mass spectrometry (LC–MS). To be noted: 2 µM.
A short description of data set [5]: The drug is tested on Bacteroides xylanisolvens strain: DSM18836 for biotransformation. The drug concentrations were measured before and after a 12-h incubation by liquid-chromatography-coupled mass spectrometry (LC–MS). Particulars: 2 µM.
Data set [6] can be described thus: The drug is tested on Blautia hansenii strain: DSM20583 for biotransformation. The drug concentrations were measured before and after a 12-h incubation by liquid-chromatography-coupled mass spectrometry (LC–MS). To be noted: 2 µM.
The conditions of data set [7]: bacteroides thetaiotaomicron, 12 h, 2 µM.
Description: The drug is tested on Bacteroides thetaiotaomicron strain: 7330 for biotransformation. The drug concentrations were measured before and after a 12-h incubation by liquid-chromatography-coupled mass spectrometry (LC–MS)
The nature of data set [8]: The drug is tested on Edwardsiella tarda strain: ATCC23685 for biotransformation. The drug concentrations were measured before and after a 12-h incubation by liquid-chromatography-coupled mass spectrometry (LC–MS). Particulars: 2 µM.
Data set [9] can be described thus: The drug is tested on Clostridium ramosum strain: DSM1402 for biotransformation. The drug concentrations were measured before and after a 12-h incubation by liquid-chromatography-coupled mass spectrometry (LC–MS). Particulars: thomasclavelia ramosa, 2 µM.
The conditions of data set [10]: bacteroides fragilis, 12 h, 2 µM.
Description: The drug is tested on Bacteroides fragilis strain: 3397 (T10) for biotransformation. The drug concentrations were measured before and after a 12-h incubation by liquid-chromatography-coupled mass spectrometry (LC–MS)
For data set [11] the following is noted: bacteroides fragilis, 12 h, 2 µM. The source holds these as a separate data set.
Description: The drug is tested on Bacteroides fragilis strain: DS-208 for biotransformation. The drug concentrations were measured before and after a 12-h incubation by liquid-chromatography-coupled mass spectrometry (LC–MS)
Data set [12] is described as follows: The drug is tested on Bacteroides vulgatus strain: ATCC8482 for biotransformation. The drug concentrations were measured before and after a 12-h incubation by liquid-chromatography-coupled mass spectrometry (LC–MS). To be noted: phocaeicola vulgatus, 2 µM.
The conditions of data set [13]: bacteroides thetaiotaomicron, 12 h, 2 µM. This is another data set of the same source.
Description: The drug is tested on Bacteroides thetaiotaomicron strain: VPI-5482 for biotransformation. The drug concentrations were measured before and after a 12-h incubation by liquid-chromatography-coupled mass spectrometry (LC–MS)
Data set [14] can be described thus: The drug is tested on Eubacterium rectale strain: ATCC33656 for biotransformation. The drug concentrations were measured before and after a 12-h incubation by liquid-chromatography-coupled mass spectrometry (LC–MS). To be noted: agathobacter rectalis, 2 µM.
Data set [15] can be described thus: The drug is tested on Clostridium sporogenes strain: ATCC15579 for biotransformation. The drug concentrations were measured before and after a 12-h incubation by liquid-chromatography-coupled mass spectrometry (LC–MS). To be noted: 2 µM.
Data set [16] in a line: The drug is tested on Bifidobacterium breve strain: DSM20213 for biotransformation. The drug concentrations were measured before and after a 12-h incubation by liquid-chromatography-coupled mass spectrometry (LC–MS). Particulars: 2 µM.
A short description of data set [17]: The drug is tested on Bacteroides fragilis strain: HMW610 for biotransformation. The drug concentrations were measured before and after a 12-h incubation by liquid-chromatography-coupled mass spectrometry (LC–MS). Particulars: 2 µM.
The nature of data set [18]: The drug is tested on Collinsella aerofaciens strain: ATCC25986 for biotransformation. The drug concentrations were measured before and after a 12-h incubation by liquid-chromatography-coupled mass spectrometry (LC–MS). To be noted: 2 µM.
Data set [19] is described as follows: The drug is tested on Clostridium symbiosum strain: ATCC14940 for biotransformation. The drug concentrations were measured before and after a 12-h incubation by liquid-chromatography-coupled mass spectrometry (LC–MS). Particulars: 2 µM.

As to `CNCCC(Oc1ccc(C(F)(F)F)cc1)c1ccccc1` (stereo not drawn) [FLUOXETINE], the “Bacterial Biotransformation” value is listed as “Compound NOT metabolized” in data set [1]; “Compound metabolized” in data set [2]; “Compound metabolized” in [3]; “Compound metabolized” in [4]; “Compound metabolized” in [5]; “Compound metabolized” in [6]. Further, the “Bacterial Biotransformation” value in data set [7] is “Compound metabolized”; in [8], “Compound NOT metabolized”; in data set [9], “Compound metabolized”; in [10] it was “Compound metabolized”; in data set [11], “Compound metabolized”; in data set [12], “Compound metabolized”. The “Bacterial Biotransformation” value in data set [13], in data set [14], in [15], in data set [16], in data set [17] and in [18] was “Compound metabolized” in each case.

In the case of `CN1CCC[C@@H]1CCO[C@](C)(c1ccccc1)c1ccc(Cl)cc1.O=C(O)/C=C/C(=O)O` [CLEMASTINE FUMARATE], the “Bacterial Biotransformation” value is reported as “Compound metabolized” in [1]; “Compound NOT metabolized” in data set [2]; “Compound NOT metabolized” in data set [3]; “Compound metabolized” in [4]; “Compound metabolized” in data set [5]; “Compound metabolized” in data set [6]. Also, the “Bacterial Biotransformation” value in data set [7] is “Compound metabolized”; in data set [8], “Compound NOT metabolized”; in data set [9], “Compound NOT metabolized”; in data set [10], “Compound metabolized”; in [11], “Compound metabolized”; in [12], “Compound metabolized”. For the same compound, the “Bacterial Biotransformation” value in data set [13] is on record as “Compound NOT metabolized”; in data set [19] it was “Compound NOT metabolized”; in data set [16] it was “Compound NOT metabolized”; in data set [17] it was “Compound metabolized”; in data set [18], “Compound NOT metabolized”.

Turning to `O=C1CN2Cc3c(ccc(Cl)c3Cl)N=C2N1` [ANAGRELIDE], the “Bacterial Biotransformation” value in [1] is listed as “Compound NOT metabolized”; in data set [2], “Compound NOT metabolized”; in data set [3], “Compound NOT metabolized”; in data set [4] it was “Compound NOT metabolized”; in data set [5] it was “Compound NOT metabolized”; in data set [6] it was “Compound metabolized”. The “Bacterial Biotransformation” value in data set [7], in [8], in [9], in [10], in data set [11] and in data set [13] was “Compound NOT metabolized” each time. The “Bacterial Biotransformation” value in data set [19], in data set [15], in [16] and in [18] was “Compound NOT metabolized” throughout.

Consider `O=C(O)COCCN1CCN(C(c2ccccc2)c2ccc(Cl)cc2)CC1` (stereo not drawn) [CETIRIZINE], for which the “Bacterial Biotransformation” value is given as “Compound metabolized” in data set [1]; “Compound metabolized” in data set [2]; “Compound NOT metabolized” in data set [3]; “Compound metabolized” in data set [4]; “Compound metabolized” in data set [5]; “Compound metabolized” in data set [6]. The “Bacterial Biotransformation” value in data set [7] was “Compound metabolized”; in data set [8] it was “Compound NOT metabolized”; in data set [9], “Compound NOT metabolized”; in data set [10], “Compound metabolized”; in data set [11] it was “Compound metabolized”; in data set [12], “Compound metabolized”. In addition, the “Bacterial Biotransformation” value is reported as “Compound metabolized” in data set [13]; “Compound NOT metabolized” in [19]; “Compound NOT metabolized” in [14]; “Compound NOT metabolized” in data set [15]; “Compound NOT metabolized” in data set [16]; “Compound metabolized” in data set [17]. Also, the “Bacterial Biotransformation” value in data set [18] is “Compound NOT metabolized”.

Regarding `CC(C(=O)O)c1ccc2c(c1)Cc1cccnc1O2` (stereo not drawn) [PRANOPROFEN], the “Bacterial Biotransformation” value in data set [1], in data set [2], in data set [3], in [4], in [5] and in data set [6] was “Compound metabolized” each time. The “Bacterial Biotransformation” value in data set [7], in [8], in [9], in data set [10], in data set [11] and in data set [12] was “Compound metabolized” in each case. Besides, the “Bacterial Biotransformation” value in data set [13] is “Compound metabolized”; in data set [19], “Compound metabolized”; in data set [16], “Compound metabolized”; in [17] it was “Compound metabolized”; in data set [18] it was “Compound NOT metabolized”.

Regarding `CCc1oc2ccccc2c1C(=O)c1cc(Br)c(O)c(Br)c1` [BENZBROMARONE], the “Bacterial Biotransformation” value in data set [1], in data set [2], in data set [3], in data set [4], in data set [5] and in [6] was “Compound NOT metabolized” throughout. The “Bacterial Biotransformation” value in data set [7], in data set [8], in data set [9], in [10], in data set [11] and in data set [12] was “Compound NOT metabolized” throughout. Moreover, the “Bacterial Biotransformation” value in [13] is listed as “Compound NOT metabolized”; in [19] it was “Compound NOT metabolized”; in data set [14], “Compound NOT metabolized”; in data set [15], “Compound NOT metabolized”; in data set [16], “Compound metabolized”; in data set [17], “Compound NOT metabolized”. For the same compound, the “Bacterial Biotransformation” value in data set [18] is “Compound NOT metabolized”.

Consider `CCCC(C)(COC(N)=O)COC(=O)NC(C)C` (stereo not drawn) [CARISOPRODOL], for which the “Bacterial Biotransformation” value was “Compound metabolized” in data set [1]; “Compound metabolized” in data set [2]; “Compound NOT metabolized” in data set [3]; “Compound metabolized” in [4]; “Compound metabolized” in data set [5]; “Compound metabolized” in [6]. For the same compound, the “Bacterial Biotransformation” value in data set [7] is on record as “Compound metabolized”; in [9], “Compound NOT metabolized”; in data set [10] it was “Compound metabolized”; in data set [11], “Compound metabolized”; in [12], “Compound metabolized”; in [13], “Compound metabolized”. For the same compound, the “Bacterial Biotransformation” value is reported as “Compound NOT metabolized” in data set [19]; “Compound NOT metabolized” in data set [14]; “Compound NOT metabolized” in [16]; “Compound metabolized” in [17]; “Compound metabolized” in data set [18].
